Assay results reported in patent US9732075B2, “Benzimidazole-proline derivatives” (IDORSIA PHARMACEUTICALS LTD, priority 2012, dated 2017).

Columns and labels:
human orexin-1 receptor = human orexin-1 receptor (Homo sapiens (Human), UniProt O43613); assay: In vitro assay: intracellular calcium measurements (FLIPR), antagonistic activity; assay type: cell-based; settings: CHO cells expressing human orexin-1 receptor, orexin-A agonist, geometric mean, read-out: IC50 Ox1
In short: (§1)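 Read-out: FLIPR fluo-4 calcium peak height in CHO cells bearing human orexin-1 or orexin-2 receptor, relative to orexin-A (approx. EC70) with vehicle. Antagonist preincubation 120 min; agonist orexin-A at 3 nM final. IC50 possibly normalized to an on-plate reference compound.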

human orexin-2 receptor = human orexin-2 receptor (Homo sapiens (Human), UniProt O43614); assay: as above; assay type: cell-based; settings: CHO cells expressing human orexin-2 receptor, orexin-A agonist, geometric mean, read-out: IC50 Ox2
Sequence of human orexin-2 receptor (O43614 whole entry): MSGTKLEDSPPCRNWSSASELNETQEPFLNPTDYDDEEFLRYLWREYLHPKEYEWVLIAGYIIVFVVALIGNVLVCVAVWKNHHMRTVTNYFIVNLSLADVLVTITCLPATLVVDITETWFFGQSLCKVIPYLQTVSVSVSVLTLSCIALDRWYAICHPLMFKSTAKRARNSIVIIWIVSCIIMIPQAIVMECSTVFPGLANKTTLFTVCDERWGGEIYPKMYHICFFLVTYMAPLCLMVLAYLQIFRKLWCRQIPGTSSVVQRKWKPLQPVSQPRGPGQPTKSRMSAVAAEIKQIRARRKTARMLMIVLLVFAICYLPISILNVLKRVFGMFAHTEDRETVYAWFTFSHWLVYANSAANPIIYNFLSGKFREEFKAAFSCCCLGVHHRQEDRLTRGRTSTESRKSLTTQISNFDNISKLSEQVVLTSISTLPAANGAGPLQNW
In short: as §1

Sequence of human orexin-1 receptor (O43613 whole entry): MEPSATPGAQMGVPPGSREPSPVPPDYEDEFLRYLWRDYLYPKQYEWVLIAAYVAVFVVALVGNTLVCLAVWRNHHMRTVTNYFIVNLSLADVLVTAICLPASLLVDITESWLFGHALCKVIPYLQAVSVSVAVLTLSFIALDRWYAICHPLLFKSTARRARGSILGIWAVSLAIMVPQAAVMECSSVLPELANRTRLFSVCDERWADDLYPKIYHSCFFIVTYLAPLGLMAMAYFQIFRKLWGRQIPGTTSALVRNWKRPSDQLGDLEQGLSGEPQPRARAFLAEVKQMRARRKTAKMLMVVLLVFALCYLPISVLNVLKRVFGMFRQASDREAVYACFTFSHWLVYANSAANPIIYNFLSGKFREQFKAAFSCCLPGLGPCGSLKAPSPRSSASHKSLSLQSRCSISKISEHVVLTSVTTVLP

| IC50 (human orexin-1 receptor) [nM] | IC50 (human orexin-2 receptor) [nM] | SMILES |
| --- | --- | --- |
| 98 | 57 | COc1cc2nc([C@]3(C)CCCN3C(=O)c3ccccc3-n3nccn3)[nH]c2cc1OC [Ex. 5.73] |
| 33 | 4 | C=C1C[C@@H](c2nc3cc(C(C)(C)C)ccc3[nH]2)N(C(=O)c2ccc(C)cc2-n2nccn2)C1 [Ex. 6.166] |
| 120 | 264 | Cc1ccc(-c2ccccc2C)c(C(=O)N2CCC[C@@]2(C)c2nc3cc(C)c(C)cc3[nH]2)c1 [Ex. 5.98] |
| 4 | 3 | C=C1CC(c2nc3c(OC)ccc(OC)c3[nH]2)N(C(=O)c2nc(C3CC3)sc2-c2cccc(C)c2)C1 (centres unmarked) [Ex. 6.98] |
| 11 | 29 | Cc1ccc(-c2ccccc2F)c(C(=O)N2CCC[C@@]2(C)c2nc3cc(C)c(C)cc3[nH]2)c1 [Ex. 5.95] |
| 17 | 19 | COc1cc2nc([C@]3(C)CCCN3C(=O)c3cc(Cl)ccc3-n3nccn3)[nH]c2cc1OC [Ex. 5.64] |
| 113 | 1 | C[C@@]1(c2nc3cc(C(F)(F)F)ccc3[nH]2)CCCN1C(=O)c1cc(Br)ccc1-c1ccccc1 [Ex. 5.262] |
| 61 | 48 | CSc1cccc2nc([C@@H]3CCCN3C(=O)c3nc(C)sc3-c3ccc(Br)cc3)[nH]c12 [Ex. 1.60] |
| 1 | 4 | Cc1ccc(-n2nccn2)c(C(=O)N2CCC[C@@]2(C)c2nc3c(C)c(Cl)ccc3n2C)n1 [Ex. 7.18] |
| 13 | 34 | C=C1CN(C(=O)c2nc(C)sc2-c2ccc(OC)cc2)C(C)(c2nc3cc(OC)ccc3[nH]2)C1 (centres unmarked) [Ex. 6.147] |
| 10 | 2 | C=C1C[C@@H](c2nc3c(C)cccc3[nH]2)N(C(=O)c2nc(C)sc2-c2cccc(Cl)c2)C1 [Ex. 6.44] |
| 5 | 46 | CSc1cccc2nc([C@@H]3CCCN3C(=O)c3cnc(C)nc3-c3ccc(Cl)c(Cl)c3)[nH]c12 [Ex. 1.79] |
| 10 | 18 | Cc1ccc(-c2ncccn2)c(C(=O)N2CCC[C@@]2(C)c2nc3cc(C)c(C)cc3[nH]2)c1 [Ex. 5.284] |
| 30 | 77 | CSc1cccc2nc([C@@H]3CCCN3C(=O)c3cnc(C)nc3-c3ccccc3)[nH]c12 [Ex. 1.87] |
| 225 | 471 | CO[C@H]1CN(C(=O)c2c(-n3nccn3)ccc(C)c2F)C(C)(c2nc3c(C)c(Cl)ccc3[nH]2)C1 (some centres unmarked) [Ex. 3.47] |
| 43 | 2930 | Cc1nc(C(=O)N2CC[C@H](C)[C@H]2c2nc3c(F)cccc3[nH]2)c(-c2cccc(Cl)c2)s1 [Ex. 4.18] |
| 66 | 171 | Cc1ccc(-c2ccccc2F)c(C(=O)N2CCC[C@@]2(C)c2nc3cc(C)c(C)cc3n2CC2CC2)c1 [Ex. 7.50] |
| 57 | 164 | Cc1ccc(-n2nccn2)c(C(=O)N2CCC[C@@]2(C)c2nc3cc(SC(F)(F)F)ccc3[nH]2)c1 [Ex. 5.30] |
| 842 | 64 | C=C1C[C@@H](c2nc3cc(C(C)(C)C)ccc3[nH]2)N(C(=O)c2nc(C)ccc2-n2cccn2)C1 [Ex. 6.173] |
| 35 | 10 | CSc1ccc2nc([C@@H]3CCCN3C(=O)c3cnc(C)nc3-c3ccc(C)c(C)c3)[nH]c2c1 [Ex. 1.55] |
| 272 | 14 | C=C1C[C@@H](c2nc3cccc(C)c3[nH]2)N(C(=O)c2cc(OC)ccc2-n2nccn2)C1 [Ex. 6.111] |
| 23 | 37 | Cc1ccc(-c2cccc(C#N)c2)c(C(=O)N2CCC[C@@]2(C)c2nc3cc(C(F)(F)F)c(Cl)cc3[nH]2)c1 [Ex. 5.159] |
| 414 | 7 | C=C1C[C@@H](c2nc3cccc(C)c3[nH]2)N(C(=O)c2cc(C)c(C)cc2-n2nccn2)C1 [Ex. 6.108] |
| 5 | 2760 | COc1ccc(-c2sc(C)nc2C(=O)N2CC[C@H](C)[C@H]2c2nc3cc(C(F)(F)F)ccc3[nH]2)cc1 [Ex. 4.141] |
| 7 | 155 | Cc1c(Cl)ccc2nc([C@]3(C)CCCN3C(=O)c3nc(-c4ccccc4)sc3-c3ccc(F)cc3)[nH]c12 [Ex. 5.226] |
| 39 | 97 | COc1ccc(-n2nccn2)c(C(=O)N2CC[C@H](C)[C@H]2c2nc3cc(OC)c(OC)cc3[nH]2)c1 [Ex. 4.43] |
| 1 | 145 | Cc1c(Cl)ccc2[nH]c([C@]3(C)CCCN3C(=O)c3nc(-c4cccc(C#N)c4)sc3-c3ccc(F)cc3)nc12 [Ex. 5.255] |

| IC50 (human orexin-1 receptor) [nM] | IC50 (human orexin-2 receptor) [nM] | SMILES |
| --- | --- | --- |
| 39 | 60 | COc1cc2nc([C@]3(C)CCCN3C(=O)c3cc(C)ccc3-n3nccn3)n(CC3CC3)c2cc1OC [Ex. 7.47] |
| 88 | 1120 | Cc1nc(C(=O)N2CCC[C@@]2(C)c2nc3cc(OC(F)(F)F)ccc3[nH]2)c(-c2ccccc2C)s1 [Ex. 5.243] |
| 25 | 29 | Cc1ccc(-n2nccn2)c(C(=O)N2CCC[C@@]2(C)c2nc3c4c(ccc3[nH]2)OCCO4)c1 [Ex. 5.33] |
| 157 | 73 | CSc1ccc2nc([C@@H]3CCCN3C(=O)c3nc(C)sc3-c3cccc(F)c3)[nH]c2c1 [Ex. 1.39] |
| 24 | 16 | COc1ccc(-c2cccc(C)c2)c(C(=O)N2CCC[C@@]2(C)c2nc3ccc(Cl)c(C)c3[nH]2)c1F [Ex. 5.301] |
| 76 | 48 | COc1ccc2nc([C@@H]3CCCN3C(=O)c3cnc(C)nc3-c3ccc(Br)c(Cl)c3)[nH]c2c1 [Ex. 1.33] |
| 3 | 5 | Cc1nc(C(=O)N2CCC[C@@]2(C)c2nc3c(C)c(Cl)ccc3[nH]2)c(-c2cccc(Cl)c2)s1 [Ex. 5.5] |
| 21 | 530 | Cc1cccc(-c2nc(C(=O)N3CCC[C@@]3(C)c3nc4c(C)c(Cl)ccc4[nH]3)c(-c3ccc(F)cc3)s2)c1 [Ex. 5.230] |
| 233 | 15 | C=C1C[C@@H](c2nc3cc(C(C)(C)C)ccc3[nH]2)N(C(=O)c2nc(C)ccc2-n2nccn2)C1 [Ex. 6.174] |
| 2 | 4 | Cc1nc(C(=O)N2CCC[C@@]2(C)c2nc3c(C)c(Cl)ccc3[nH]2)c(-c2ccccc2)s1 [Ex. 5.3] |
| 16 | 7 | CO[C@@H]1C[C@@H](c2nc3ccc(Cl)c(C)c3[nH]2)N(C(=O)c2c(-n3nccn3)ccc(C)c2F)C1 [Ex. 3.13] |
| 8 | 24 | C[C@@]1(c2nc3cc(C(F)(F)F)c(Cl)cc3[nH]2)CCCN1C(=O)c1ccccc1-n1nccn1 [Ex. 5.142] |
| 58 | 50 | Cc1nc(C(=O)N2CCCC2c2nc3cc(C(C)(C)C)ccc3[nH]2)c(-c2cccc(Cl)c2)s1 (centres unmarked) [Ex. 1.99] |
| 367 | 33 | C=C1C[C@@H](c2nc3ccc(OC)cc3[nH]2)N(C(=O)c2nc(C)sc2-c2ccc(F)cc2)C1 [Example 6.1, (S)-(5-(4-fluorophenyl)-2-methylthiazol-4-yl)(2-(6-methoxy-1H-benzo[d]imidazol-2-yl)-4-methylenepyrrolidin-1-yl)methanone] |
| 11 | 0.6 | C=C1C[C@@H](c2nc3ccc(Cl)c(C)c3[nH]2)N(C(=O)c2cc(C)c(C)cc2-n2nccn2)C1 [Ex. 6.130] |
| 10 | 486 | Cc1ccc(C(=O)N2CC[C@H](C)[C@H]2c2nc3c(C)c(Cl)ccc3[nH]2)c(-c2ccccc2)c1 [Ex. 4.168] |
| 21 | 7 | C=C1C[C@@H](c2nc3cc(OC)ccc3[nH]2)N(C(=O)c2nc(C)sc2-c2cccc(Cl)c2)C1 [Ex. 6.8] |
| 17 | 22 | C=C1C[C@@H](c2nc3cc(C(F)(F)F)c(Cl)cc3[nH]2)N(C(=O)c2nc(C)sc2-c2ccc(C)c(C)c2)C1 [Ex. 6.142] |
| 78 | 77 | COCCn1c([C@]2(C)CCCN2C(=O)c2cc(C)ccc2-n2nccn2)nc2cc(OC)c(OC)cc21 [Ex. 7.46] |
| 31 | 83 | COc1cc2nc([C@]3(C)CCCN3C(=O)c3ccc(C)cc3-n3nccn3)[nH]c2cc1OC [Ex. 5.70] |
| 43 | 11 | C=C1C[C@@H](c2nc3cc(C)c(C)cc3[nH]2)N(C(=O)c2c(-n3nccn3)ccc(OC)c2F)C1 [Ex. 6.195] |
| 6 | 2110 | Cc1nc(C(=O)N2CC[C@H](C)[C@H]2c2nc3cc(C(F)(F)F)ccc3[nH]2)c(-c2ccccc2Cl)s1 [Ex. 4.146] |
| 26 | 239 | Cc1nc(C(=O)N2CCC[C@@]2(C)c2nc3c(F)c(F)ccc3[nH]2)c(-c2cccc(F)c2)s1 [Ex. 5.212] |
| 18 | 45 | CO[C@H]1CN(C(=O)c2nc(C)ccc2-n2cccn2)C(C)(c2nc3c(C)c(Cl)ccc3[nH]2)C1 (some centres unmarked) [Ex. 3.55] |
| 13 | 6 | C=C1C[C@@H](c2nc3cc(Cl)c(C(F)(F)F)cc3[nH]2)N(C(=O)c2cc(Cl)ccc2-n2nccn2)C1 [Ex. 6.177] |
| 657 | 769 | Cc1nc(C(=O)N2CCCC2c2nc3c(F)cccc3[nH]2)c(-c2cccc(Cl)c2)s1 (centres unmarked) [Ex. 1.104] |
| 13 | 18 | CO[C@H]1CN(C(=O)c2ccc(C)cc2-n2nccn2)C(C)(c2nc3c(C)c(Cl)ccc3[nH]2)C1 (some centres unmarked) [Ex. 3.49] |

| SMILES | IC50 (human orexin-1 receptor) [nM] | IC50 (human orexin-2 receptor) [nM] |
| --- | --- | --- |
| Cc1cc(C(=O)N2CCC[C@@]2(C)c2nc3c(C)c(Cl)ccc3[nH]2)c(-n2nccn2)cc1C [Ex. 5.41] | 2 | 2 |
| Cc1ccc(C(=O)N2CCC[C@@]2(C)c2nc3c(C)c(Cl)ccc3[nH]2)c(-n2nccn2)c1 [Ex. 5.38] | 4 | 12 |
| Cc1ccc(-n2nccn2)c(C(=O)N2CCC[C@@]2(C)c2nc3cc(F)c(Br)cc3[nH]2)c1 [Ex. 5.23] | 15 | 80 |
| Cc1ccc(-n2nccn2)c(C(=O)N2CCC[C@@]2(C)c2nc3c(C)c(Cl)ccc3[nH]2)n1 [Ex. 5.47] | 5 | 15 |
